# From US20100204149A1, “USE OF OCTREOTIDE AS A THERAPEUTIC AGENT” (priority 2007, published 2010)
# Columns and labels:
# CEM-SS cells = assay: Cytotoxicity (MTS cell viability) in HIV-1 assay; conditions: peptide 10 micrograms per ml, MTS
# HIV-1IIIB = assay: HIV-1 antiviral assay (CPE reduction) in CEM-SS cells; conditions: peptide 10 micrograms per ml; 6 days post-infection; MTS
# [1] = tested on: MRC-5 cells (human embryonal lung fibroblasts); assay: Cytotoxicity testing in MRC-5 cells (CellTiter 96); type: cell-based; conditions: 6 days
# Protocol: For cytotoxicity testing, MRC-5 cells were seeded at 2,500 cells/well in 96 well plates using growth medium. […] The following day, peptide was added and tested in duplicates. After a 6 days incubation period, cell viability was measured using CellTiter 96 Solution (Promega). Plates were incubated for additional 4 hours at 37° C.
# HCMV strain AD169 = assay: HCMV plaque reduction assay in MRC-5 cells; type: cell-based; conditions: peptide 10 micrograms per ml, 7-10 days
# Source text: Ganciclovir was used as positive control.
Structure (SMILES),% Cell viability (CEM-SS cells) [%],% CPE reduction in HIV-1 infected CEM-SS cells (HIV-1IIIB) [%],% Cell viability [1] [%],% plaque reduction (HCMV strain AD169) [%]
"Cc1cn([C@H]2C[C@H](N=[N+]=[N-])[C@@H](CO)O2)c(=O)[nH]c1=O [AZT, reference compound]",97,99,,
"Nc1nc(O)c2ncn(COC(CO)CO)c2n1 [Ganciclovir, reference compound]",,,100,100
CC(C)(C)NC(=O)[C@@H]1CN(Cc2cccnc2)CCN1C[C@@H](O)C[C@@H](Cc1ccccc1)C(=O)N[C@H]1c2ccccc2C[C@H]1O [Indinavir],,100,,
